Test results: ChEMBL document CHEMBL6121052, “Design of ROS-Triggered Sesquiterpene Lactone SC Prodrugs as TrxR1 Covalent Inhibitors for the Treatment of Non-Small Cell Lung Cancer” (J Med Chem, 2025)
Active and inactive are the calls of the source. The rule behind the calls is not given here.

What was measured:
A549 [1] = assay: Induction of apoptosis in human A549 cells assessed as necrotic cells at 5 uM measured after 48 hrs by Annexin V/FITC staining based flow cytometric analysis (reference value: 2.52 %); type: functional
NCI-H1299 [2] = assay: Antiproliferative activity against human NCI-H1299 cells assessed as decrease in EdU positive cells at 4 uM measured after 14 days by Hoechst 33342 staining based fluorescence microscopic analysis; type: functional, cell-based; conditions: time 14.0 day
NCI-H1299 [3] = assay: Induction of morphological changes in human NCI-H1299 cells assessed as increase in number of contracted shapes upto 10 uM; type: functional, cell-based
[4] = Toxicity in BALB/c mouse assessed as liver damage at 5 to 10 mg/kg, po administered every 2 days for 2 weeks by H and E staining based analysis; type: organism-based; conditions: in vivo, 336 h, dose 5-10 mg/kg
A549 [5] = assay: Induction of morphological changes in human A549 cells assessed as increase in number of contracted shapes upto 10 uM; type: functional, cell-based
[6] = MRT (0 to t) in male Sprague-Dawley rat at 10 mg/kg, iv measured upto 24 hrs by LC-MS/MS analysis; type: ADME, organism-based; conditions: in vivo
A549 [7] = assay: Inhibition of colony formation in human A549 cells assessed as reduction in colony number at 4 uM incubated for 14 days by crystal violet staining based analysis; type: functional, cell-based; conditions: time 14.0 day
A549 [8] = assay: Induction of morphological changes in human A549 cells assessed as decrease in cell density upto 10 uM by AO/EB staining based analysis; type: functional
A549 [9] = assay: Induction of apoptosis in human A549 cells assessed as increase in Bax expression at upto 10 uM incubated for 24 hrs by Western blot analysis; type: functional, cell-based
[10] = Toxicity in BALB/c mouse assessed as spleen damage at 5 to 10 mg/kg, po administered every 2 days for 2 weeks by H and E staining based analysis; type: organism-based; conditions: in vivo, 336 h, dose 5-10 mg/kg
A549 [11] = assay: Antiproliferative activity against human A549 cells assessed as increase in cell viability in presence of NAC; type: functional, cell-based
A549 [12] = assay: Induction of apoptosis in human A549 cells assessed as viable cells at 10 uM measured after 48 hrs by Annexin V/FITC staining based flow cytometric analysis (reference value: 90.8 %); type: functional; conditions: read-out: Activity
[13] = Volume of distribution at steady state in male Sprague-Dawley rat at 10 mg/kg, iv measured upto 24 hrs by LC-MS/MS analysis; type: ADME, organism-based; conditions: in vivo, read-out: Vdss
NSCLC = assay: Downregulation of TrxR1 expression in human NSCLC cells by IHC analysis; type: functional, cell-based
NCI-H1299 [14] = assay: Induction of apoptosis in human NCI-H1299 cells assessed as increase in green fluorescence intensity upto 10 uM by AO/EB staining based fluorescence microscopic analysis; type: functional, cell-based
NCI-H1299 [15] = assay: Induction of apoptosis in human NCI-H1299 cells assessed as necrotic cells at 10 uM measured after 48 hrs by Annexin V/FITC staining based flow cytometric analysis (reference value: 0.62%); type: functional
A549 [16] = assay: Induction of ferroptosis in human A549 cells assessed as cell death by MTT assay; type: functional, cell-based
NCI-H1299 [17] = assay: Induction of apoptosis in human NCI-H1299 cells assessed as necrotic cells at 5 uM measured after 48 hrs by Annexin V/FITC staining based flow cytometric analysis (reference value: 0.62%); type: functional
[18] = Toxicity in BALB/c mouse assessed as body weight loss at 5 to 10 mg/kg, po administered every 2 days for 2 weeks; type: organism-based; conditions: in vivo, 336 h, dose 5-10 mg/kg
A549 [19] = assay: Induction of apoptosis in human A549 cells assessed as necrotic cells at 10 uM measured after 48 hrs by Annexin V/FITC staining based flow cytometric analysis (reference value: 2.52 %); type: functional
A549 [20] = assay: Induction of ferroptosis in human A549 cells assessed as effect on SLC7A11 protein expression at 10 uM incubated for 24 hrs by Western blotting analysis; type: functional, cell-based
A549 [21] = assay: Induction of apoptosis in human A549 cells assessed as early apoptotic cells at 10 uM measured after 48 hrs by Annexin V/FITC staining based flow cytometric analysis (reference value: 1.31 %); type: functional
NCI-H1299 [22] = assay: Cytotoxicity against human NCI-H1299 cells assessed as cell viability incubated for 48 hrs by MTT assay; type: functional, cell-based; conditions: NCI-H1299, 48 h
NCI-H1299 [23] = assay: Induction of ferroptosis in human NCI-H1299 cells assessed as increase in intracellular LPO accumulation at 5 uM incubated for 24 hrs by flow cytometry analysis; type: functional, cell-based
A549 [24] = assay: Downregulation of TrxR1 level in human A549 cells upto 10 uM incubated for 24 hrs by Western blot analysis; type: functional, cell-based
Mitochondrial membrane = assay: Induction of mitochondrial membrane potential loss in human A549 cells assessed as increase in green fluorescence upto 10 uM incubated for 24 hrs by JC-1 staining based confocal microscopy analysis; type: cell membranes
[25] = Clearance in male Sprague-Dawley rat at 10 mg/kg, iv measured upto 24 hrs by LC-MS/MS analysis; type: ADME, organism-based; conditions: in vivo
NCI-H1299 [26] = assay: Antitumor activity against human NCI-H1299 cells xenografted in BALB/c mouse assessed as reduction in tumor weight at 5 to 10 mg/kg, po administered every 2 days for 2 weeks; type: functional, organism-based; conditions: dose 5-10 mg/kg
NCI-H1299 [27] = assay: Induction of apoptosis in human NCI-H1299 cells assessed as early apoptotic cells at 5 uM measured after 48 hrs by Annexin V/FITC staining based flow cytometric analysis (reference value: 1.14 %); type: functional
A549 [28] = assay: Induction of intracellular ROS generation in human A549 cells upto 10 uM by DCFH-DA probe based fluorescence assay; type: functional, cell-based
NCI-H1299 [29] = assay: Induction of intracellular ROS generation in human NCI-H1299 cells upto 10 uM by DCFH-DA probe based fluorescence assay; type: functional, cell-based
[30] = Toxicity in BALB/c mouse assessed as lung damage at 5 to 10 mg/kg, po administered every 2 days for 2 weeks by H and E staining based analysis; type: organism-based; conditions: in vivo, 336 h, dose 5-10 mg/kg
A549 [31] = assay: Induction of apoptosis in human A549 cells assessed as necrotic cells at 2.5 uM measured after 48 hrs by Annexin V/FITC staining based flow cytometric analysis (reference value: 2.52 %); type: functional
NCI-H1299 [32] = assay: Antitumor activity against human NCI-H1299 cells xenografted in BALB/c mouse assessed as decrease in GPX4 expression at 5 to 10 mg/kg, po administered every 2 days for 2 weeks by IHC analysis; type: functional, organism-based; conditions: dose 5-10 mg/kg
[33] = Toxicity in BALB/c mouse assessed as change in viscera index at 5 to 10 mg/kg, po administered every 2 days for 2 weeks; type: organism-based; conditions: in vivo, 336 h, dose 5-10 mg/kg
A549 [34] = assay: Induction of apoptosis in human A549 cells assessed as early apoptotic cells at 5 uM measured after 48 hrs by Annexin V/FITC staining based flow cytometric analysis (reference value: 1.31 %); type: functional
NCI-H1299 [35] = assay: Induction of apoptosis in human NCI-H1299 cells assessed as necrotic cells at 2.5 uM measured after 48 hrs by Annexin V/FITC staining based flow cytometric analysis (reference value: 0.62%); type: functional
A549 [36] = assay: Induction of apoptosis in human A549 cells assessed as increase in green fluorescence intensity upto 10 uM by AO/EB staining based fluorescence microscopic analysis; type: functional, cell-based

CCCNC(=O)O[C@@H]1/C=C(\C)C[C@H]2C=C(C[C@@H]3OC(=O)[C@H](CSC(=S)N(C)C)[C@H]31)C(=O)O2
Activity (A549 [1]): 3.5% | Activity (NCI-H1299 [2]): Active | Activity (NCI-H1299 [3]): Active | Activity [4]: Non-toxic | Activity (A549 [5]): Active | MRT last at 24 h [6]: 4.15 h | inhibition (A549 [7]): Active | Activity (A549 [8]): Active | Activity (A549 [9]): Active | Activity [10]: Non-toxic | Activity (A549 [11]): Active | viability at 10 µM (A549 [12]): 68.8% | Vd [13]: 57.6 L/kg | Activity (NSCLC): Active | Activity (NCI-H1299 [14]): Active | Activity (NCI-H1299 [15]): 1.01% | Activity (A549 [16]): Active | Activity (NCI-H1299 [17]): 1.45% | Activity [18]: Non-toxic | Activity (A549 [19]): 3.24% | Activity (A549 [20]): Active | Activity (A549 [21]): 3.68% | IC50 (NCI-H1299 [22]): 4.68 µM | Activity (NCI-H1299 [23]): Active | Activity (A549 [24]): Active | Activity (Mitochondrial membrane): Active | clearance [25]: 162 mL/min/kg | Activity (NCI-H1299 [26]): Active | Activity (NCI-H1299 [27]): 10.2% | Activity (A549 [28]): Active | Activity (NCI-H1299 [29]): Active | Activity [30]: Non-toxic | Activity (A549 [31]): 4.09% | Activity (NCI-H1299 [32]): Active | Activity [33]: Non-toxic | Activity (A549 [34]): 2.47% | Activity (NCI-H1299 [35]): 1.2% | Activity (A549 [36]): Active
